What was measured:
Human neutrophils [1] = test: Neutrophil adhesion under static conditions; assay type: cell-based; settings: fMLP-stimulated adhesion to fibrinogen; method: 40 μM and 80 μM, concentration of the value not stated
Description: Human neutrophils obtained from buffy coats of healthy donors were suspended at 3×10^6/ml in adhesion buffer (PBS containing 1 mM CaCl2)/MgCl2 and 10% FCS, pH 7.2). Neutrophils were preincubated for 30 min at 37° C. with 40 μM and 80 μM of the compounds.
Adhesion assays were performed on 18-well glass slides coated for 18 h at 4° C. with human fibrinogen (20 μg/well in endotoxin-free PBS); 20 μl of cell suspension were added to each well and stimulated for 1 min at 37° C. with 5 μl of fMLP 1 nM final concentration. After washing, adherent cells were fixed in glutaraldehyde 1.5% in PBS and counted by computer-assisted enumeration. Statistical analysis was performed by calculating mean and standard deviation (SD); significance was calculated by unpaired t-test. All statistical analyses were performed using GraphPad Prism 6 (GraphPad Software).

VEGFR-2 = target: T1, VEGFR-2 (Homo sapiens, UniProt P35968); test: VEGF-165 induced phosphorylation of VEGF-Receptor on HUVEC; assay type: cell-based; settings: HUVEC preincubated 60 min, VEGF165 25 ng/mL 2 min; read-out: VEGFR-Phosphorylation inhibition IC50
T1 construct: endogenous in cells; host or cells: primary HUVEC
Description: Cell culture: Primary human umbilical vein endothelial cells (HUVECs) were routinely cultured in 0.1% gelatin pre-coated flasks or dishes, up to passage 6. […]
Rabbit primary antibodies for VEGFR-2, p-Tyr1175 were acquired from Cell Signaling Technology (Leiden, The Netherlands). Phospho-VEGFR-2 (Tyr1175) Sandwich ELISA Kit was from Cell Signaling Technology.
[…] Western blot analysis was performed using anti-phospho-VEGFR-2 antibody and total VEGFR-2 was used as a loading control after membrane stripping.
Inhibition of VEGFR-2-phosphorylation results are expressed as IC50 in microM [μM] versus VEGF-treated HUVECs control without inhibitory compound.

Human neutrophils [2] = test: Inhibition of ROS production in human neutrophils (isoluminol chemiluminescence); assay type: cell-based; settings: fMLP+TNF-α stimulated PMN; for inhibition at 0.3 µM / IC50: Homo sapiens, Neutrophil
Text: NADPH oxidase, located in the plasma membrane and in the membranes of specific granules, produces superoxide anions from which other ROS, such as hydrogen peroxide, singlet oxygen, hypochlorite, and active hydroxyl radicals. ROS are released into the surrounding medium or into a membrane-enclosed subcellular organelle. One quick and sensitive method for measuring the generation of these metabolites is chemiluminescence (CL). Isoluminol amplified CL technique, is very sensitive and widely used to study respiratory burst (mainly extracellular production of ROS) induced in neutrophils.
Human neutrophils were isolated from buffy coats which obtained from healthy donors. The isolated neutrophils (3×10^6/ml) were suspended in Hanks' Balanced Salt Solution (HBSS) with Calcium and Magnesium. Neutrophils were pre-incubated with the compounds at different concentrations (0.1, 0.3, 1, 3 and 10 μM) for 30 min at 37° C. The black 96-well cell culture plates were coated with human fibrinogen (0.25 mg/ml in PBS), and incubated overnight at 4° C. or 2 hr at 37° C. Then the plates were washed with endotoxin-free PBS. The neutrophils were incubated (priming) with TNF-α (20 ng/ml) for 10 minutes at 37° C. Thereupon the 75 μl of cell suspension and 75 μl (Isoluminol+HRP solution) were added to each well. The chemiluminescence was recorded (every 25 sec for 250 sec) after fMLP (1 μM) activation using a Multilabel Reader victor3 (Perkin Elmer, USA). Background values, defined as the mean chemiluminescent values of isoluminol diluted in HBSS, were subtracted from all readings (CPS, count per second). The assays were done in duplicate or triplicate.

FGF-1 = target: T2, FGF-1 (Homo sapiens, UniProt P05230); test: FGF-1 induced sprouting of HUVEC, spheroid-based cellular angiogenesis assay; assay type: cell-based; settings: FGF-1 25 ng/mL preincubated with compound, 24 h
T2 construct: purchased Peprotech 100-17A
Description: (§1) Aim of this in vitro method is to assess compounds effects on FGF-2, FGF-1, or VEGF-A induced sprouting of human umbilical vein endothelial cells (HUVEC) in the spheroid-based cellular angiogenesis assay. Before adding the growth factors to the cells, they were preincubated with the compound. Sunitinib was tested as a control (without preincubation).
(§2) IC50 values determined for the tested compounds are expressed in microM [μM] and the values for the inhibition of FGF-1, FGF2 and VEGF-A induced growth (sprouting) are listed after each compound in the examples after chemical characterization.
(§3) Sprouting test was performed on the compounds dissolved in DMSO to reach 100-fold concentrated stock solutions and dissolved in culture media. Sunitinib as reference compound was provided by ProQinase GmbH. Growth factors were purchased from rhFGF-basic (FGF-2), Peprotech, New Jersey, USA, #100-18C, Lot #0415571; rhFGF-acidic (FGF-1), Peprotech, New Jersey, USA, #100-17A, Lot #031207; hVEGF-A165 (ProQinase GmbH, Freiburg, Germany; 05.02.2010) were used for stimulation of HUVEC cells growth.
(§4) Test system: Endothelial cells from human umbilical vein (HUVEC) from pooled donors were stored frozen with 70% medium, 20% FCS, 10% DMSO at about 1×10^6 cells/ampoule. HUVEC cells, primary human umbilical vein endothelial cells (PromoCell, Heidelberg, Germany), were used after passage 3 to 4. Morphology of the cells are adherent, cobblestone-like growing as monolayer and were cultured in endothelial cell growth and basal medium (ECGM/ECBM, PromoCell). The subculture was split 1:3; every 3-5 days, seed out at ca. 1×10^4 cells/cm^2 and incubated at 37° C. with 5% CO2 with a doubling time 24-48 hours
(§5) Dilution of test compounds: 100× concentrated solutions (concerning to the final assay concentrations) of each test compound were prepared with the appropriate solvent (in DMSO or in water). These 100×compound solutions were further diluted in endothelial cell growth and basal medium (ECBM) 1:7.5 to get a 13.33× concentrated solution. 75 μl of the 13.33×solution was subsequently mixed with 25 μl of 40× concentrated stimulus (solved in ECBM), resulting in a 10×concentrated stimulus/compound mixture. This mixture (100 μl) was incubated for 30 min at 37° C. and then added to 900 μl gel, containing the HUVEC spheroids (resulting in the final assay concentration).
(§6) Test method: the experiments were pursued in modification of the originally published protocol (Korff and Augustin: J Cell Sci 112: 3249-58, 1999). In brief, spheroids were prepared as described (Korff and Augustin: J Cell Biol 143: 1341-52, 1998) by pipetting 400 HUVEC in a hanging drop on plastic dishes to allow overnight spheroid aggregation. 50 HUVEC spheroids were then seeded in 0.9 ml of a collagen gel and pipetted into individual wells of a 24 well plate to allow polymerization. The test compounds were preincubated with the growth factors (FGF-1, FGF-2 or VEGF-A final concentration 25 ng/mL) in a 10-fold concentrated solution and subsequently, 100 μl of this solution was added on top of the polymerized gel. All compounds were diluted in solvent (DMSO or water) as 100×stocks first (which means 100×stocks of each final assay concentration were prepared in solvent). Subsequently, these stocks were further diluted in medium (resulting in the 13.33×stocks of each final assay concentration) with final concentrations tested: 100, 50, 25, 12.5, 6.25, 3.13 and 1.56×10^−6 M). Plates were incubated at 37° C. for 24 hours and fixed by adding 4% PFA (Roth, Karlsruhe, Germany).
(§7) Quantification of growth factor inhibition: sprouting intensity of HUVEC spheroids treated with the growth factor and the inhibitors were quantitated by an image analysis system determining the cumulative sprout length per spheroid (CSL).

FGF-2 = target: T3, FGF-2 (Homo sapiens, UniProt P09038); test: FGF-2 induced sprouting of HUVEC, spheroid-based cellular angiogenesis assay; assay type: cell-based; settings: FGF-2 25 ng/mL preincubated with compound, 24 h
T3 construct: purchased Peprotech 100-18C
Description: as §1, §2, §3, §4, §5, §6, §7

[3] = tested on: STZ-induced diabetes model; test: STZ-induced diabetic nephropathy, kidney disease and retinopathy model (28 days treatment)
Description: A total of 70 female CD-1 mice aged 5-7 weeks weighing approximately 25-30 g were used for the study. These were purchased from Charles River, UK and had 7 days acclimatization period. Animals were housed in IVC cages (up to 5 per cage) with individual mice identified by tail mark. All animals were allowed free access to a standard certified commercial diet and sanitised water during the study. The holding room was maintained under standard conditions: 18-24° C., 55-70% humidity and a 12 h light/dark cycle.
Mice were starved for 6 hours prior to injection. One week after completion of induction glucose levels were monitored and mice with levels less than 15 mml/L (280 mg/gL) were removed from the study as they had not developed the ideal severity of diabetes. Glucose levels were be monitored weekly and 5 weeks after STZ induction biochemical assessment of renal injury was carried out by measuring urine albumin and creatinine levels and confirming they were within the desired range. After successful completion of this stage animals were assigned to treatment groups.
Treatment continued for 4 weeks (28 days) with weekly measurement of blood glucose and urine albumin/creatinine. The study schedule is detailed below looking at weekly (week 5 to 9) blood glucose levels, urine albumin creatinie ratios, and terminal (week 9) blood chemistry and cytokines, kidney histology and eye-retinal leakage.
Urine Albumin: Creatinine (ALB: CRE): Urine was collected weekly and pooled for each treatment group.
ELISAs: At the end of the treatment period blood was collected and processed to serum. Serum levels of CRP, TGF-β, IL-6 and TNF-α were quantified using commercially available ELISA kits, results are shown in Table 56.

[4] = day 28 of treatment (week 9), 15 mg/kg IV, Captopril 50 mg/kg PO
[5] = day 28 of treatment (week 9), serum, 15 mg/kg IV, Captopril 50 mg/kg PO

T1 sequence (P35968 20-1356): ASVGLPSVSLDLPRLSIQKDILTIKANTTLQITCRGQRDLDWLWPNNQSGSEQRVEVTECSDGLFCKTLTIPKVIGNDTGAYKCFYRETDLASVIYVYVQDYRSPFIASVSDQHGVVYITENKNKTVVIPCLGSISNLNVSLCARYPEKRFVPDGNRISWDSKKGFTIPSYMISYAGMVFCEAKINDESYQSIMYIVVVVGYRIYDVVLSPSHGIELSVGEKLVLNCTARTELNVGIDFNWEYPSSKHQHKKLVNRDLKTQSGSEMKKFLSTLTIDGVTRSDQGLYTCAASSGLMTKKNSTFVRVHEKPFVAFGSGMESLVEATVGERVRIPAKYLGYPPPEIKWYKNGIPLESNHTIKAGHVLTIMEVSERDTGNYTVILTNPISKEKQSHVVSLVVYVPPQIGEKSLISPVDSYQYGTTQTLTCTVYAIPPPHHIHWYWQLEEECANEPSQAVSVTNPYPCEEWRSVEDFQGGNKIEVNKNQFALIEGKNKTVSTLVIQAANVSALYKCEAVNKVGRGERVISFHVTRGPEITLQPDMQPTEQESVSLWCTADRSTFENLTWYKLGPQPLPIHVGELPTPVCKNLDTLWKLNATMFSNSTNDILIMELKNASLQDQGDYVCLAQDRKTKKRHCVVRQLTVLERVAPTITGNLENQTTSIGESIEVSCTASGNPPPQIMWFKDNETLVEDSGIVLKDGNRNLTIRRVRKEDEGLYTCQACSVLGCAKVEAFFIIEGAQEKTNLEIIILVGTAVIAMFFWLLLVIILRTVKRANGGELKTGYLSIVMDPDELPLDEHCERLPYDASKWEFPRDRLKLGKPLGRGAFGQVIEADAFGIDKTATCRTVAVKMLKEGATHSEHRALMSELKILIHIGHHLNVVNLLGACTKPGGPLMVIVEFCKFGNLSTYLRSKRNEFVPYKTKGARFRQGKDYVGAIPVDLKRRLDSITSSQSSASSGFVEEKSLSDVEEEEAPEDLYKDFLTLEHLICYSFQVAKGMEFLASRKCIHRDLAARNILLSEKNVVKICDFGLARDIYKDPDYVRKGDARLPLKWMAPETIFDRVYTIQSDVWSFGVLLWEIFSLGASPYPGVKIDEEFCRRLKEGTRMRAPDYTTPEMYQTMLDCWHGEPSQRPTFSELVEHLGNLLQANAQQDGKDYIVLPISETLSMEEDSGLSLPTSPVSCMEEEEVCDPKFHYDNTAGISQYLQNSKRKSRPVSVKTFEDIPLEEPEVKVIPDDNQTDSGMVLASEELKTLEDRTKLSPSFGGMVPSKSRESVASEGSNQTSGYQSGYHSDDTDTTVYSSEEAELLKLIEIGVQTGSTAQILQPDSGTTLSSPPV
T3 sequence (P09038 134-288): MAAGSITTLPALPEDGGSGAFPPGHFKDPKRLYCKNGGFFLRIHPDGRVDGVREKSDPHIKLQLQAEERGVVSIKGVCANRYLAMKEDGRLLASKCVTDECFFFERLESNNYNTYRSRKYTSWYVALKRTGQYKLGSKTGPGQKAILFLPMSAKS
T2 sequence (P05230 whole entry): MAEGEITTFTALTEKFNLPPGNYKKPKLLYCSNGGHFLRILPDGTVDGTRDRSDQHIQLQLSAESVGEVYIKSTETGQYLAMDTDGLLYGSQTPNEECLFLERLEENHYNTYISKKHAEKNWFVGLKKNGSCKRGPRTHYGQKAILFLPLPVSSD

| Compound | Neutrophil adhesion inhibition (Human neutrophils [1]) [%] | IC50 (VEGFR-2) [µM] | inhibition at 0.3 µM (Human neutrophils [2]; 0.3 μM) [%] | IC50 (FGF-1) [µM] | IC50 (FGF-2) [µM] | other results |
| --- | --- | --- | --- | --- | --- | --- |
| CCOC(=O)c1cc(O)c(CN(Cc2cc(O)c(C(=O)OCC)cc2O)Cc2cc(O)c(C(=O)OCC)cc2O)cc1O [IIIc-061a-E3] | 10.4 | 0.34 | – | – | – | – |
| CCOC(=O)c1cc(NC(=O)c2cc(OC(C)=O)c(C(=O)OCC)cc2OC(C)=O)cc(NC(=O)c2cc(OC(C)=O)c(C(=O)OCC)cc2OC(C)=O)c1 [Ib-010a-E3-A4, ethyl 3,5-bis(2,5-diacetoxy-4-ethoxycarbonylbenzoylamino)benzoate] | 96 | 0.54 | 54.9 | ≥ 200 | – | IC50 (Human neutrophils [2]): 1.49 µM |
| O=C(O)c1cc(O)c(CNCc2cc(O)c(C(=O)O)cc2O)cc1O [IIIc-056a, Bis(4-carboxy-2,5-dihydroxyphenylmethyl)amine] | 35 | – | 90.1 | – | 35 | – |
| CCOC(=O)Cc1ccccc1NC(=O)c1cc(O)cc(C(=O)OCC)c1O [IIa-034a-E2, ethyl 3-(2-(ethoxycarbonylmethyl)phenylaminocarbonyl)-2,5-dihydroxybenzoate] | 11.86 | – | 68.7 | – | 164 | – |
| O=C(O)Cc1ccc(NC(=O)c2cc(O)c(C(=O)O)cc2O)cc1 [Ia-032a, 4-(4-(carboxymethyl)phenylaminocarbonyl)-2,5-dihydroxybenzoic acid] | – | ≥ 100 | – | – | 91 | – |
| CCOC(=O)c1cc(O)c(-c2nc3c(C(=O)OC)cccc3[nH]2)cc1O [Id-030a-E2] | 43 | 0.33 | – | 115 | – | PMN ROS inhibition at 0.3 μM (Human neutrophils [2]; 0.3 μM): 0% |
| C[C@H](CS)C(=O)N1CCC[C@H]1C(=O)O [Captopril, reference compound] | – | – | – | – | – | Serum CRP ([3]; 28 days of treatment, vs vehicle induced controls): significantly reduced; Mean day 0 blood glucose Concentration (mmol/L) (SD) ([3]; day 0, 15 mg/kg IV, Captopril 50 mg/kg PO): 23.7 (6.9) mmol/L; Mean day 28 blood glucose Concentration (mmol/L) (SD) ([3]; day 28, 15 mg/kg IV, Captopril 50 mg/kg PO): 32.2 (2.3) mmol/L; Blood BUN [3, 4]: 28.5 ± 7.6; Disease Score (kidney, H&E) [3, 4]: 6 ± 1; Eye area (retinal flatmount area covered by vasculature) [3, 4]: 11.8 ± 1.4; Trichrome staining (Kidney fibrosis) [3, 4]: 1.98 ± 0.47; Blood CRP [3, 5]: 4534 ± 821; Blood IL-6 [3, 5]: 125.56 ± 15.75; Blood TGF-beta [3, 5]: 14.55 ± 2.86; Blood TNF-alpha [3, 5]: 415 ± 51.7; Urine albumine creatinine ratio (ALB:CRE) ([3]; day 28 of treatment (week 9), urine pooled per group, 15 mg/kg IV, Captopril 50 mg/kg PO): 24.40 |
| O=C(O)c1cc(NC(=O)c2cc(O)cc(C(=O)O)c2O)cc(C(=O)O)c1 [IIa-015a, 5-(3-carboxy-2,5-dihydroxybenzamido)isophthalic acid] | – | – | – | – | 125 | – |
| CCOC(=O)Cc1cc(O)c(C(=O)Nc2cc(NC(=O)c3cc(O)c(CC(=O)OCC)cc3O)cc(C(=O)OC)c2)cc1O [IIIb-010a-E3, methyl 3,5-bis(4-(ethoxycarbonylmethyl)-2,5-dihydroxybenzamido)benzoate] | 0 | 0.65 | – | – | – | – |
| O=C(O)c1cccc(NC(=O)c2cc(O)cc(C(=O)O)c2O)c1 [IIa-002a, 3-(3-carboxyphenylaminocarbonyl)-2,5-dihydroxybenzoic acid] | 17.39 | – | 43.3 | 19 | 131 | IC50 (Human neutrophils [2]): 0.299 µM |
| O=C(O)c1ccc(NC(=O)c2cc(O)c(C(=O)O)cc2O)cc1 [Ia-003a, 4-(4-carboxyphenyl-aminocarbonyl)-2,5-dihydroxybenzoic acid] | 39.1 | – | 44.4 | 12 | 34 | IC50 (Human neutrophils [2]): 0.414 µM |
| O=C(O)c1cc(O)c(C(=O)Nc2ccc(S(=O)(=O)O)cc2)cc1O [Ia-003c, 2,5-dihydroxy-4-(4-sulfophenylaminocarbonyl)benzoic acid] | – | 0.4 | – | 35 | – | – |
| O=C(O)c1cc(O)cc(C(=O)Nc2ccccc2S(=O)(=O)O)c1O [IIa-001c, 2,5-dihydroxy-3-(2-sulfophenylaminocarbonyl)benzoic acid] | 43.53 | – | 72.6 | – | 71 | – |

Source: US20230150951A1, “2,5- OR 2,6-DISUBSTITUTED HYDROQUINONE DERIVATIVES WITH AT LEAST ONE CARBOXY, SULFO OR AMIDO GROUP USEFUL AS MEDICAMENTS” (OM PHARMA SA, priority 2020, published 2023)
